ChEMBL document CHEMBL3576813, “Cucurbitacin D Is a Disruptor of the HSP90 Chaperone Machinery” (J Nat Prod, 2015)
Active and inactive are the calls of the source. The rule behind the calls is not given here.

Assays:
MCF7 [1] = experiment: Cytotoxicity against human MCF7 cells assessed as growth inhibition after 72 hrs by MTS/PMS assay; format: functional, cell-based; conditions: MCF7, 72 h
[2] = molecular target: T1, Heat shock protein HSP90 (Homo sapiens) (UniProt P07900+P08238); experiment: Inhibition of HSP90 in human MCF7 cells assessed as Her2 degradation after 24 hrs by Western blot analysis; format: cell-based
MCF7 [3] = experiment: Change in Cdc37 expression in human MCF7 cells at 0.01 to 10 uM after 24 hrs by Western blot analysis; format: functional, cell-based
[4] = molecular target: T1, Heat shock protein HSP90 (Homo sapiens); experiment: Inhibition of HSP90 in human MCF7 cells assessed as induction of heat shock response-mediated HSP27 production at 5 times to 10 times IC50 after 24 hrs by Western blot analysis relative to vehicle-treated control; format: cell-based
[5] = molecular target: T1, Heat shock protein HSP90 (Homo sapiens); experiment: Inhibition of HSP90 in human MCF7 cells assessed as Raf degradation after 24 hrs by Western blot analysis; format: cell-based
[6] = molecular target: T1, Heat shock protein HSP90 (Homo sapiens); experiment: Inhibition of HSP90 in human MCF7 cells assessed as pAkt degradation after 24 hrs by Western blot analysis; format: cell-based
MCF7 [7] = experiment: Change in p23 expression in human MCF7 cells at 0.01 to 10 uM after 24 hrs by Western blot analysis; format: functional, cell-based
[8] = molecular target: T1, Heat shock protein HSP90 (Homo sapiens); experiment: Inhibition of HSP90 in human MCF7 cells assessed as Cdk6 degradation after 24 hrs by Western blot analysis; format: cell-based
[9] = molecular target: T1, Heat shock protein HSP90 (Homo sapiens); experiment: Inhibition of HSP90 in human MCF7 cells assessed as pAkt degradation at 0.5 times to 5 times IC50 after 24 hrs by Western blot analysis; format: cell-based
[10] = molecular target: T1, Heat shock protein HSP90 (Homo sapiens); experiment: Inhibition of HSP90 in human MCF7 cells assessed as Raf degradation at 0.5 times to 5 times IC50 after 24 hrs by Western blot analysis; format: cell-based
[11] = molecular target: T1, Heat shock protein HSP90 (Homo sapiens); experiment: Inhibition of HSP90 in human MCF7 cells assessed as induction of heat shock response-mediated HSP27 production at 0.5 times to 5 times IC50 after 24 hrs by Western blot analysis; format: cell-based
[12] = molecular target: T1, Heat shock protein HSP90 (Homo sapiens); experiment: Inhibition of HSP90 in human MCF7 cells assessed as Cdk6 degradation at 0.5 times to 5 times IC50 after 24 hrs by Western blot analysis; format: cell-based
[13] = molecular target: T1, Heat shock protein HSP90 (Homo sapiens); experiment: Inhibition of HSP90 in human MCF7 cells assessed as induction of heat shock response-mediated HSP90 production at 0.5 times to 5 times IC50 after 24 hrs by Western blot analysis; format: cell-based
[14] = molecular target: T1, Heat shock protein HSP90 (Homo sapiens); experiment: Inhibition of HSP90 in human MCF7 cells assessed as induction of heat shock response-mediated HSP70 production at 0.5 times to 5 times IC50 after 24 hrs by Western blot analysis; format: cell-based
[15] = molecular target: T1, Heat shock protein HSP90 (Homo sapiens); experiment: Inhibition of HSP90 in human MCF7 cells assessed as Her2 degradation at 0.5 times to 5 times IC50 after 24 hrs by Western blot analysis; format: cell-based
MCF7 [16] = experiment: Change in Cdc37 expression in human MCF7 cells at 5 times IC50 after 24 hrs by Western blot analysis; format: functional, cell-based
MCF7 [17] = experiment: Change in p23 expression in human MCF7 cells at 5 times IC50 after 24 hrs by Western blot analysis; format: functional, cell-based
[18] = molecular target: T1, Heat shock protein HSP90 (Homo sapiens); experiment: Inhibition of HSP90 in human MCF7 cells assessed as disruption of interaction with p23 at 0.5 times to 5 times IC50 after 24 hrs by co-immunoprecipitation assay; format: cell-based
[19] = molecular target: T1, Heat shock protein HSP90 (Homo sapiens); experiment: Inhibition of HSP90 in human MCF7 cells assessed as disruption of interaction with Cdc37 at 0.5 times to 5 times IC50 after 24 hrs by co-immunoprecipitation assay; format: cell-based
[20] = molecular target: T2, Prostaglandin E synthase 3 (Homo sapiens) (UniProt Q15185); experiment: Binding affinity to p23 in human MCF7 cells assessed as inhibition of interaction with HSP90 at 5 times IC50 after 24 hrs by co-immunoprecipitation assay; format: cell-based
T2 sequence (whole entry): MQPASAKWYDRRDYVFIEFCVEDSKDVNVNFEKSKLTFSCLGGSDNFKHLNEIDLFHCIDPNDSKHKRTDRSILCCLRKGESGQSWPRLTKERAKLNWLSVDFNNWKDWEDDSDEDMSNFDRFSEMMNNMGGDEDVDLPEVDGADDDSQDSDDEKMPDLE

| Structure (SMILES) | IC50 (MCF7 [1]; read-out: IC50) [nM] | inhibition [4] | inhibition [9] | inhibition [10] | inhibition [11] | inhibition [12] | inhibition [13] | inhibition [14] | inhibition [15] | Activity (MCF7 [16]) | Activity (MCF7 [17]) | further results |
| --- | --- | --- | --- | --- | --- | --- | --- | --- | --- | --- | --- | --- |
| CC(C)(O)/C=C/C(=O)[C@](C)(O)[C@H]1[C@H](O)C[C@@]2(C)[C@@H]3CC=C4[C@@H](C[C@H](O)C(=O)C4(C)C)[C@]3(C)C(=O)C[C@]12C [CUCURBITACIN D] | 598 | inactive | – | – | – | – | – | – | – | – | – | inhibition [2]: Dose-dependent effect; Activity (MCF7 [3]): inactive; inhibition [5]: Dose-dependent effect; inhibition [6]: Dose-dependent effect; Activity (MCF7 [7]): inactive; inhibition [8]: Dose-dependent effect |
| CC(C)(O)CCC(=O)[C@@](C)(O)[C@H]1[C@H](O)C[C@@]2(C)[C@@H]3CC=C4[C@@H](C[C@H](O)C(=O)C4(C)C)[C@]3(C)C(=O)C[C@]12C | 5130 | – | inactive | inactive | inactive | inactive | inactive | inactive | inactive | – | – | – |
| COC1=C2C[C@@H](C)C[C@H](OC)[C@H](O)[C@@H](C)/C=C(\C)[C@H](OC(N)=O)[C@@H](OC)/C=C\C=C(/C)C(=O)NC(=CC1=O)C2=O [GELDANAMYCIN] | 42.7 | – | – | – | – | – | – | – | – | Active | Active | – |
| CC(C)(O)/C=C/C(=O)[C@](C)(O)[C@H]1[C@H](O)C[C@@]2(C)[C@@H]3CC=C4[C@@H](C=C(O)C(=O)C4(C)C)[C@]3(C)C(=O)C[C@]12C [CUCURBITACIN I] | 60.7 | – | inactive | inactive | inactive | inactive | inactive | inactive | inactive | – | – | – |
| CC(=O)OC(C)(C)/C=C/C(=O)[C@](C)(O)[C@H]1[C@H](O)C[C@@]2(C)[C@@H]3CC=C4[C@H](C[C@H](O)C(=O)C4(C)C)[C@]3(C)C(=O)C[C@]12C [CUCURBITACIN B] | 41.3 | – | inactive | inactive | inactive | inactive | inactive | inactive | inactive | – | – | – |
| CC(C)(O)/C=C/C(=O)[C@](C)(O)[C@H]1[C@H](O)C[C@@]2(C)[C@@H]3CC=C4[C@@H](CC(=O)[C@H](O)C4(C)C)[C@]3(C)C(=O)C[C@]12C | 718 | Active | – | – | – | – | – | – | – | – | – | inhibition [2]: Dose-dependent effect; Activity (MCF7 [3]): inactive; inhibition [5]: Dose-dependent effect; inhibition [6]: Dose-dependent effect; Activity (MCF7 [7]): inactive; inhibition [18]: inactive; inhibition [19]: inactive; inhibition [8]: Dose-dependent effect |
| CC(=O)OC(C)(C)/C=C/C(=O)[C@](C)(O)[C@H]1[C@H](O)C[C@@]2(C)[C@@H]3CC=C4[C@@H](C=C(O)C(=O)C4(C)C)[C@]3(C)C(=O)C[C@]12C [CUCURBITACIN E] | – | – | inactive | inactive | inactive | inactive | inactive | inactive | inactive | – | – | IC50 (MCF7 [1]): 55 nM |
| CC(=O)OC(C)(C)CCC(=O)[C@](C)(O)[C@H]1[C@H](O)C[C@@]2(C)[C@@H]3CC=C4[C@@H](C[C@H](O)C(=O)C4(C)C)[C@]3(C)C(=O)C[C@]12C [23,24-DIHYDROCUCURBITACIN B] | 46300 | – | inactive | inactive | inactive | inactive | inactive | inactive | inactive | – | – | – |
| CC1=C(O)C(=O)C=C2C1=CC=C1[C@@]2(C)CC[C@@]2(C)[C@@H]3C[C@](C)(C(=O)O)CC[C@]3(C)CC[C@]12C [CELASTROL] | 153 | – | – | – | – | – | – | – | – | Active | Active | – |
| CC(=O)O[C@@H]1C[C@H]2C(C)(C)C(=O)C=C[C@]2(C)[C@H]2CC[C@@]3(C)[C@H](c4ccoc4)OC(=O)[C@H]4O[C@]43[C@@]21C [GEDUNIN] | 10900 | inactive | – | – | – | – | – | – | – | Active | Active | inhibition [20]: Active |
